Measured values published in PMC3458792 (Neuron, 2012).
Where a chain is given by its changes, count along the chain named.

How the values were obtained:
Assay type in all cases: cell-based
[1] = molecular target: GLR-1, STG-1, SOL-1 and SOL-2 (Caenorhabditis elegans, UniProt P34299); test: patch clamp of C. elegans muscle cells; conditions: -60 mV
[2] = molecular target: GLR-1, STG-2, SOL-1 and SOL-2 (Caenorhabditis elegans, UniProt P34299); test: two-electrode voltage clamp, Xenopus oocytes, agonist-gated current
GLR-1, STG-1 and SOL-1 = molecular target: T1, GLR-1, STG-1 and SOL-1 (Caenorhabditis elegans, UniProt P34299); test: patch clamp of C. elegans muscle cells; conditions: 100 μM kainate; -60 mV; partial agonist
T1 sequence (P34299 26-962): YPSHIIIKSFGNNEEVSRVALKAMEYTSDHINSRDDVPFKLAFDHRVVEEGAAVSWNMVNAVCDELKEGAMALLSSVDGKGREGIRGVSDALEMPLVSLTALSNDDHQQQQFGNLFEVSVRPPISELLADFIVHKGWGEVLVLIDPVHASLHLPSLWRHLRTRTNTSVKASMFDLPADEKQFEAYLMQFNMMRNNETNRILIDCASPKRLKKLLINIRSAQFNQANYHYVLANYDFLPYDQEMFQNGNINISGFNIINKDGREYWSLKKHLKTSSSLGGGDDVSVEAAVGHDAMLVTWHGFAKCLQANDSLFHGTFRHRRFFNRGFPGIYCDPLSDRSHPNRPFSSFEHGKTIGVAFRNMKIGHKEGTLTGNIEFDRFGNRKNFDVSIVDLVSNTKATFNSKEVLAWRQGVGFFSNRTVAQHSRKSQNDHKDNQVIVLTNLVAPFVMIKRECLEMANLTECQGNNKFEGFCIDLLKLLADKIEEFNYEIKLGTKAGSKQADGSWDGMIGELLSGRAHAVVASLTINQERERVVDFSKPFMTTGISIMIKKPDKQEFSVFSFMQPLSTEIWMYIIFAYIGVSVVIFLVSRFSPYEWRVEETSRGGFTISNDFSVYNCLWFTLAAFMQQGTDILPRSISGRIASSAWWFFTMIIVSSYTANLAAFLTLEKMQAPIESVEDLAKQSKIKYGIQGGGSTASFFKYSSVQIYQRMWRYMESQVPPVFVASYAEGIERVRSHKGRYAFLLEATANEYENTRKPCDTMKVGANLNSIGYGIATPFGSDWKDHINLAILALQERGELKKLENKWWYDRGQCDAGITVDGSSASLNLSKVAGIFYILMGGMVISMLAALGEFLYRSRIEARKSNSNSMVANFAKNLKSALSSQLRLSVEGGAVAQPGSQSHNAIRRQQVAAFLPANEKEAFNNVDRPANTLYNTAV
T1 sequence (Q15KL0 1-366 partner): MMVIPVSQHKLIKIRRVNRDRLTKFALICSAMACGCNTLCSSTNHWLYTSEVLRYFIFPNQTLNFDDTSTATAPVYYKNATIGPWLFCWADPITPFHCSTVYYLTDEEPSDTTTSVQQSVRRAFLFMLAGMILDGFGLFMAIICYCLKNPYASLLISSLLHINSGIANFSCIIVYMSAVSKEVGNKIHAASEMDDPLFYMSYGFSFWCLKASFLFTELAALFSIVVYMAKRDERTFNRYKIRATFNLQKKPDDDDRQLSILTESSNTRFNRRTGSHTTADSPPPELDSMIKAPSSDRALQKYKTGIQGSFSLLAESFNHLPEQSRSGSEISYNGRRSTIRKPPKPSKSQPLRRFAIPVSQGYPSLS
T1 sequence (Q93212 24-594 partner): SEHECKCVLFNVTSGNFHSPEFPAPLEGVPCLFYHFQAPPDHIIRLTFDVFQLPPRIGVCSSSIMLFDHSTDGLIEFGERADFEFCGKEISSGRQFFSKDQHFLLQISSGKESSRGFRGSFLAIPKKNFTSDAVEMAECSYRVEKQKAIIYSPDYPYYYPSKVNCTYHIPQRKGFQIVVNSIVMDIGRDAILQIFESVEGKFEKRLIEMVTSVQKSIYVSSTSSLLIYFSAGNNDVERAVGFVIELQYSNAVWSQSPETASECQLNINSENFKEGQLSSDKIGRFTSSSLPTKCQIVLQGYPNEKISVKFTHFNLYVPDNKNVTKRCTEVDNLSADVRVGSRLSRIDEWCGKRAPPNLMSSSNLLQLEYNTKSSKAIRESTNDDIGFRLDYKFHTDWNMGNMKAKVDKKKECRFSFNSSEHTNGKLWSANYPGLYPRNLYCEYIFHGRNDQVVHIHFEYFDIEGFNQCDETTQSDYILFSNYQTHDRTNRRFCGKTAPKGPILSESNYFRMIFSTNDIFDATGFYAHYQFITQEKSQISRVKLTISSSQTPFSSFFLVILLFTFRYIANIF

GLR-1, STG-2 and SOL-1 [3] = molecular target: T2, GLR-1, STG-2 and SOL-1 (Caenorhabditis elegans, UniProt P34299); test: two-electrode voltage clamp, Xenopus oocytes, agonist-gated current
T2 sequence (P34299 26-962): T1 sequence (P34299 26-962)
T2 sequence (G5EBI8 1-357 partner): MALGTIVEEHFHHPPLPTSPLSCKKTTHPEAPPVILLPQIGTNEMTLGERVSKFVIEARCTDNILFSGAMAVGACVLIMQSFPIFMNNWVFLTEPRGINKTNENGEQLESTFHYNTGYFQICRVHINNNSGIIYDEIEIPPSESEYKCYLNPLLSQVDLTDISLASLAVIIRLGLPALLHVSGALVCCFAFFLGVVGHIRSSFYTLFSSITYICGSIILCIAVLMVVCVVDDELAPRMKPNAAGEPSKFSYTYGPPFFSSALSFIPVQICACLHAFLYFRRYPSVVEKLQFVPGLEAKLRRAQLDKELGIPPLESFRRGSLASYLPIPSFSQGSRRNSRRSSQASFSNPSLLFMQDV
T2 sequence (Q93212 24-594 partner): T1 sequence (Q93212 24-594 partner)

[4] = molecular target: GLR-1, STG-2, SOL-1 and SOL-2 (Caenorhabditis elegans, UniProt P34299, Q552Y); test: as above; conditions: 1 mM glutamate
GLR-1, STG-2 and SOL-1 [5] = molecular target: T3, GLR-1, STG-2 and SOL-1 (Caenorhabditis elegans, UniProt P34299, Q552Y); test: as above; conditions: 1 mM glutamate
T3 sequence (P34299 26-962 Q552Y): T1 sequence (P34299 26-962) with Q527Y
T3 sequence (G5EBI8 1-357 partner): T2 sequence (G5EBI8 1-357 partner)
T3 sequence (Q93212 24-594 partner): T1 sequence (Q93212 24-594 partner)

[6] = 100 μM kainate, partial agonist

Chain of GLR-1, STG-1, SOL-1 and SOL-2 (Q9XUU2 19-436 partner, one chain of several): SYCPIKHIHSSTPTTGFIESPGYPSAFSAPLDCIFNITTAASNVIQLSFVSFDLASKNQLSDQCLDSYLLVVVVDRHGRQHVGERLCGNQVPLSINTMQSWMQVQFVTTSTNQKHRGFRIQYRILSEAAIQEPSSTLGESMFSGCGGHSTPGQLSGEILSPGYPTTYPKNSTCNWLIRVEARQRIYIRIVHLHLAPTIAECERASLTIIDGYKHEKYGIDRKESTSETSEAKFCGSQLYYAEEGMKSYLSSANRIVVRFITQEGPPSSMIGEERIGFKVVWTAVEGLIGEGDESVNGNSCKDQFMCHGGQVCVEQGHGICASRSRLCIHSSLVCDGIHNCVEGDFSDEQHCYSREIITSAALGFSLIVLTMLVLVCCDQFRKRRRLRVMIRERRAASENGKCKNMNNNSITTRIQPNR
Chain of GLR-1, STG-2, SOL-1 and SOL-2 (Caenorhabditis elegans, UniProt P34299) (Q9XUU2 19-436 partner, one chain of several): as above
Chain of GLR-1, STG-2, SOL-1 and SOL-2 (Caenorhabditis elegans, UniProt P34299, Q552Y) (P34299 26-962 Q552Y, one chain of several): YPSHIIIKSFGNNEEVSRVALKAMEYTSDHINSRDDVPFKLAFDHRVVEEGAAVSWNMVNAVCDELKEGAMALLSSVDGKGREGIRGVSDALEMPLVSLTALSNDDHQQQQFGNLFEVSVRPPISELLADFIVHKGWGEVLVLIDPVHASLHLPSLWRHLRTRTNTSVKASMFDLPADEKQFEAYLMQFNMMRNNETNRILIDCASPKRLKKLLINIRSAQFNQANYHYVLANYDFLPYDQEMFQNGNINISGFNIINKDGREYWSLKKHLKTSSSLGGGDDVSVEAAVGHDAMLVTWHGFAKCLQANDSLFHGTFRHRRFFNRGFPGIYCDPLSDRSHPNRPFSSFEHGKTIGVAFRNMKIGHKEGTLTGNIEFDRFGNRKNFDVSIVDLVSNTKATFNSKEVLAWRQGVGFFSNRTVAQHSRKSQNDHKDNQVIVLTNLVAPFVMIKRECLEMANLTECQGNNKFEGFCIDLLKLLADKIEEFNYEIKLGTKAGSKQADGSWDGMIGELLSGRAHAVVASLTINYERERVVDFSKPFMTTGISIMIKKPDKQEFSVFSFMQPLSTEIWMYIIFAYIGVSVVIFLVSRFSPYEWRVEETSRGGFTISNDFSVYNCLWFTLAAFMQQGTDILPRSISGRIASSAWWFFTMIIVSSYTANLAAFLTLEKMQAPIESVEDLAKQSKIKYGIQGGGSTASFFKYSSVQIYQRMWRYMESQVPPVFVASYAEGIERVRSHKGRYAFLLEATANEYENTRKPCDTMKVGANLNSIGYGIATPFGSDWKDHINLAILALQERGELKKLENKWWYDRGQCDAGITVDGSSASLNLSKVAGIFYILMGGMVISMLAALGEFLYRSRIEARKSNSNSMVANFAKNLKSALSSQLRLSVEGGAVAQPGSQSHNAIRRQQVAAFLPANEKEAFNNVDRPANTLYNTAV
Chain of GLR-1, STG-2, SOL-1 and SOL-2 (Caenorhabditis elegans, UniProt P34299, Q552Y) (Q9XUU2 19-436 partner, one chain of several): as the sequence (Q9XUU2 19-436 partner, one chain of several) above

## C=C(C)[C@H]1CN[C@H](C(=O)O)[C@H]1CC(=O)O [KA, kainate]
[1]; [6]
  patch clamp of C. elegans muscle cells: the presence of SOL-2 markedly reduced the magnitude of the kainate-gated current
[2]; [6]
  two-electrode voltage clamp, Xenopus oocytes, agonist-gated current: The kainate-gated current appeared faster and smaller with co-expression of SOL-2
GLR-1, STG-1 and SOL-1
  patch clamp of C. elegans muscle cells: the presence of SOL-2 markedly reduced the magnitude of the kainate-gated current
GLR-1, STG-2 and SOL-1 [3]; [6]
  two-electrode voltage clamp, Xenopus oocytes, agonist-gated current: We recorded both glutamate- and kainate-gated currents from oocytes

## N[C@@H](CCC(=O)O)C(=O)O [Glu, glutamate]
[4]
  two-electrode voltage clamp, Xenopus oocytes, agonist-gated current: there was considerable desensitization when SOL-2 was co-expressed
[1]; 3 mM glutamate, agonist
  patch clamp of C. elegans muscle cells: glutamate-gated currents of approximately the same magnitude and kinetics in transgenic muscles
[2]; 1 mM glutamate, agonist
  two-electrode voltage clamp, Xenopus oocytes, agonist-gated current: We recorded both glutamate- and kainate-gated currents from oocytes
GLR-1, STG-2 and SOL-1 [5]
  two-electrode voltage clamp, Xenopus oocytes, agonist-gated current: glutamate-gated current recorded from Xenopus oocytes that expressed GLR-1(Q552Y), STG-2, and SOL-1 did not desensitize
GLR-1, STG-2 and SOL-1 [3]; 1 mM glutamate, agonist
  two-electrode voltage clamp, Xenopus oocytes, agonist-gated current: We recorded both glutamate- and kainate-gated currents from oocytes
